Where two headings read alike, the source gives them in different places.
Key:
AMO1-CD33 clone D2 = experiment: CellTiter-Glo proliferation assay (Example 6); assay type: cell-based, human; details: CD33 Mcl-1 ADCs and payload P1, 5 days
Protocol: (§1) Mcl-1 ADCs were tested on nine endogenous cancer cell lines and one isogenic cell line engineered to overexpress a target of interest. Six targets were assessed: HER2, BCMA, CD38, CD48, CD79b, and CD33.
(§2) Cell lines • HER2: HCC1954 (ATCC No. CRL-2338 cultured in RPMI-1640+10% FBS) and HCC2218 (ATCC No. CRL-2343 cultured in RPMI-1640+10% FBS). • BCMA: NCI-H929 (ATCC No. CRL-9068 cultured in RPMI-1640+10% FBS+0.05 mM 2-mercaptoethanol). • CD38: A4-Fuk (JCRB No. JCRB0097 cultured in RPMI-1640+10% FBS) and KMS-21 BM (JCRB No. JCRB1185 cultured in RPMI-1640+10% FBS). • CD48: NCI-H929 (ATCC No. CRL-9068 cultured in RPMI-1640+10% FBS+0.05 mM 2-mercaptoethanol), OPM-2 (DSMZ No. ACC-50 cultured in RPMI-1640+10% FBS) and AMO1 (DSMZ No. ACC-538 cultured in RPMI-1640+20% FBS). • CD79b: RS4;11 (ATCC No. CRL-1873 cultured in RPMI-1640+10% FBS). • CD33: MOLM-13 (DSMZ No. ACC-554 cultured in RPMI-1640+10% FBS) and an isogenic cell line, AMO1-CD33 clone D2. AMO1 cell line was transfected to generate a stable AMO1 cell line expressing the exogenous protein of interest, CD33, AMO1-CD33 clone D2 (cultured in RPMI-1640+20% FBS).
(§3) The ability of Mcl-1 ADCs to inhibit cell proliferation and survival was assessed using a Promega CellTiter-Glo® proliferation assay. Cell lines were cultured in media optimal for their growth at 5% CO2, 37° C. in a tissue culture incubator. Prior to seeding for the proliferation assay, the cells were split at least 2 days before the assay to ensure optimal growth density. On the day of seeding, adherent cells were lifted off tissue culture flasks using 0.25% trypsin. Cell viability and cell density were determined using a cell counter (Vi-Cell XR Cell Viability Analyzer, Beckman Coulter). […] Cells were seeded at a density of 1,000 cells per well in 45 μl of standard growth media. Plates were incubated at 5% CO2, 37° C. overnight in a tissue culture incubator. The next day, free Mcl-1 payload (P1), targeting Mcl-1 ADCs, and non-targeting isotype ADCs were prepared at 10× in standard growth media. The prepared drug treatments were then added to the cells resulting in final concentrations of 0.0005-500 nM and a final volume of 50 μl per well. Each drug concentration was tested in quadruplets. Plates were incubated at 5% CO2, 37° C. for 5 days in a tissue culture incubator, after which cell viability was assessed through the addition of 25 μl of CellTiter Glo® (Promega, Cat. No. G7573), a reagent which lyses cells and measures total adenosine triphosphate (ATP) content. Plates were incubated at room temperature for 10 minutes to stabilize luminescent signals prior to reading using a luminescence reader (EnVision Multilabel Plate Reader, PerkinElmer). […]

AMO1 = experiment: CellTiter-Glo proliferation assay (Example 6); assay type: cell-based, human; details: CD48 Mcl-1 ADCs and payload P1, 5 days
Protocol: as §1, §2, §3

tf1 = experiment: In vitro ADC activity, AML cell lines, CellTiter-Glo (Example 20); assay type: cell-based; details: tf1, 5 days
ociaml5 = experiment: as above; assay type: cell-based; details: ociaml5, 5 days
ko52 = experiment: as above; assay type: cell-based; details: ko52, 5 days
monomac6 = experiment: as above; assay type: cell-based; details: monomac6, 5 days
m07e = experiment: as above; assay type: cell-based; details: 5 days
[1] = system: representative cancer cell lines; experiment: CellTiter-Glo proliferation assay (Example 6), summary over the cell lines; assay type: cell-based; details: 120 h, 5 days, read-out: IC50 values (range over cell lines)
Protocol: Mcl-1 ADCs were tested on nine endogenous cancer cell lines and one isogenic cell line engineered to overexpress a target of interest. Six targets were assessed: HER2, BCMA, CD38, CD48, CD79b, and CD33. […]
The ability of Mcl-1 ADCs to inhibit cell proliferation and survival was assessed using a Promega CellTiter-Glo® proliferation assay. […] Cell viability and cell density were determined using a cell counter (Vi-Cell XR Cell Viability Analyzer, Beckman Coulter). […] Plates were incubated at 5% CO2, 37° C. for 5 days in a tissue culture incubator, after which cell viability was assessed through the addition of 25 μl of CellTiter Glo® (Promega, Cat. No. G7573), a reagent which lyses cells and measures total adenosine triphosphate (ATP) content. Plates were incubated at room temperature for 10 minutes to stabilize luminescent signals prior to reading using a luminescence reader (EnVision Multilabel Plate Reader, PerkinElmer). […]

hel9217 = experiment: In vitro ADC activity, AML cell lines, CellTiter-Glo (Example 20); assay type: cell-based; details: hel9217, 5 days
sigm5 = experiment: as above; assay type: cell-based; details: sigm5, 5 days
ocim1 = experiment: as above; assay type: cell-based; details: ocim1, 5 days
21435hx = experiment: as above; assay type: cell-based; details: 5 days
ociaml2 = experiment: as above; assay type: cell-based; details: ociaml2, 5 days

Structure (SMILES): COc1ccccc1-c1nccc(COc2ccccc2C[C@@H](Oc2ncnc3sc(-c4ccc(F)cc4)c(-c4ccc(OCCN5CCN(C)CC5)c(Cl)c4C)c23)C(=O)O)n1 [P1, (2R)-2-[5-[3-chloro-2-methyl-4-[2-(4-methylpiperazin-1-yl)ethoxy]phenyl]-6-(4-fluorophenyl)thieno[2,3-d]pyrimidin-4-yl]oxy-3-[2-[[2-(2-methoxyphenyl)pyrimidin-4-yl]methoxy]phenyl]propanoic acid]
- Amax AMO1-CD33 (AMO1-CD33 clone D2): 103.00
- IC50 (AMO1-CD33 clone D2; Homo sapiens, 120 h): 1.53 nM
- Amax AMO1 (AMO1): 19.97
- IC50 (AMO1; Homo sapiens, AMO1, 120 h): 0.038 nM
- GI50 (tf1; Homo sapiens, TF-1, 120 h): 239 nM
- Amax (tf1; unit assumed): 10%
- GI50 (ociaml5; Homo sapiens, OCI-AML-5, 120 h): 265 nM
- Amax (ociaml5; unit assumed): 4%
- GI50 (ko52; 120 h): 500 nM
- Amax (ko52; in % (unit assumed)): −75
- GI50 (monomac6; Homo sapiens, MONO-MAC-6, 120 h): 1 nM
- Amax (monomac6; in % (unit assumed)): −43
- Amax (m07e; in % (unit assumed)): −74
- GI50 (m07e; M-07e, 120 h): 94 nM
- IC50 ([1]; HER2-positive cancer cell lines): 10 to 60 nM
- IC50 ([1]; representative cancer cell lines except HER2-positive): 0.038 to 5.6 nM
- GI50 (hel9217; Homo sapiens, HEL 92.1.7, 120 h): 5280 nM
- Amax (hel9217; in % (unit assumed)): −1
- GI50 (sigm5; Homo sapiens, SIG-M5, 120 h): 118 nM
- Amax (sigm5; in % (unit assumed)): −21
- GI50 (ocim1; OCI-M1, 120 h): > 10000 nM
- Amax (ocim1; unit assumed): 86%
- GI50 (21435hx; 120 h): 12 nM
- Amax (21435hx; in % (unit assumed)): −91
- GI50 (ociaml2; Homo sapiens, OCI-AML2, 120 h): 127 nM
- Amax (ociaml2; in % (unit assumed)): −50

From patent US20230092679A1, “MCL-1 INHIBITOR ANTIBODY-DRUG CONJUGATES AND METHODS OF USE” (NOVARTIS AG, priority 2019, published 2023)
